Legend:
Gamma-secretase = assay: Inhibition of gamma-secretase-mediated notch cleavage in human SNC cells by ELISA; format: cell-based
[1] = Inhibition of gamma-secretase-mediated notch cleavage after 2 hrs by ELISA
Liver microsomes [2] = assay: (§1) Oxidative metabolic stability in human liver microsomes assessed as compound remaining at 1 uM after 30 mins in presence of 1 mM NADPH; format: ADME, Microsome; conditions: microsomes, 0.5 h, 1 µM
Liver microsomes [3] = assay: (§2) Oxidative metabolic stability in human liver microsomes assessed as compound remaining at 2 uM after 30 mins in presence of 1 mM UDPGA; format: ADME, Microsome; conditions: microsomes, 0.5 h, 2 µM
[4] = Inhibition of gamma-secretase-mediated APP cleavage assessed as amyloid beta40 level after 2 hrs by ELISA
[5] = as §1; format: ADME, Microsome; conditions: liver microsomes, read-out: Stability
[6] = as §2; format: ADME, Microsome; conditions: liver microsomes, read-out: Stability
[7] = target: Gamma-secretase (Homo sapiens) (UniProt Q96BI3+Q9NZ42+Q8WW43+P49768+Q92542+P49810); assay: Inhibition of gamma-secretase-mediated APP cleavage in human SNC cells by ELISA; format: cell-based
Mus musculus = assay: Neuroprotective activity in wild type FVB mouse brain assessed as reduction of amyloid beta 40 level at 1 mg/kg, po after 3 hrs; format: functional; set-up: scale not given: the % may be the effect or the level left

| SMILES | IC50 (Gamma-secretase) [µM] | IC50 [1] [µM] | Stability (Liver microsomes [2]) [%] | Stability (Liver microsomes [3]) [%] | IC50 [4] [µM] | remaining at 0.5 h, 1 µM [5] [%] | remaining at 0.5 h, 2 µM [6] [%] | ED50 [7] [µM] | Activity (Mus musculus) [%] |
| --- | --- | --- | --- | --- | --- | --- | --- | --- | --- |
| O=C1c2[nH]ncc2C(C2CC2)N(S(=O)(=O)c2ccc(C(F)(F)F)cn2)C12CC2 (stereo in doubt; 16i) [4'-CYCLOPROPYL-5'-(5-(TRIFLUORO METHYL)PYRIDIN-2-YL SULFONYL)-4',5'-DIHYDROSPIRO[CYCLOPROPANE-1,6'-PYRAZOLO[4,3-C]PYRIDIN]-7'(1'H)-ONE (ENANTIOMERIC MIX)] | 2.29 | 0.223 | 82 | 96 | 0.0096 | – | – | – | – |
| O=S(=O)(c1ccc(C(F)(F)F)nc1)N1C(C2CC2)c2cn[nH]c2C(F)(F)C12CC2 (stereo in doubt; 17c) [4'-CYCLOPROPYL-7',7'-DIFLUORO-5'-(6-(TRIFLUOROMETHYL)PYRIDIN-3-YLSULFONYL)-1',4',5',7'-TETRAHYDRO SPIRO[CYCLOPROPANE-1,6'-PYRAZOLO[4,3-C]PYRIDINE] (ENANTIOMERIC MIX)] | 9.28 | 0.221 | 72 | 100 | 0.056 | – | – | – | – |
| C[C@@H]1c2cn[nH]c2C(=O)[C@H](C)N1S(=O)(=O)c1ccc(C(F)(F)F)nc1 (stereo in doubt) | 18.3 | 0.144 | – | – | 0.0132 | 67 | 91 | 1.1 | – |
| O=C1c2[nH]ncc2C(C2CC2)N(S(=O)(=O)c2ccc(C(F)(F)F)nc2)C12CC2 (stereo in doubt; 16e) [4'-CYCLO PROPYL-5'-(6-(TRIFLUORO METHYL)PYRIDIN-3-YL SULFONYL)-4',5'-DIHYDROSPIRO[CYCLOPROPANE-1,6'-PYRAZOLO[4,3-C]PYRIDIN]-7'(1'H)-ONE (ENANTIOMERIC MIX)] | > 40 | – | 83 | 88 | 1.07 | – | – | – | – |
| O=C1c2[nH]ncc2C(C2CC2)N(S(=O)(=O)c2ccc(C(F)(F)F)cc2)C1C1CC1 (racemic) | 2.79 | 0.021 | – | – | 0.0004 | 67 | 76 | 0.021 | – |
| O=S(=O)(c1ccc(C(F)(F)F)nc1)N1[C@H](C2CC2)c2cn[nH]c2C(F)(F)[C@H]1C1CC1 (stereo in doubt) | 0.013 | 0.003 | – | – | 0.0001 | 43 | 41 | 0.0002 | – |
| O=S(=O)(c1ccc(C(F)(F)F)nc1)N1C(C2CC2)c2cn[nH]c2C(F)(F)C12CC2 (racemic) [4'-CYCLOPROPYL-7',7'-DIFLUORO-5'-(6-(TRIFLUOROMETHYL)PYRIDIN-3-YLSULFONYL)-1',4',5',7'-TETRAHYDRO SPIRO[CYCLOPROPANE-1,6'-PYRAZOLO[4,3-C]PYRIDINE] (ENANTIOMERIC MIX)] | 0.05 | 0.002 | 61 | – | 0.0002 | – | 89 | – | – |
| O=C1CN(S(=O)(=O)c2ccc(C(F)(F)F)nc2)C(C2CC2)c2cn[nH]c21 (racemic) | > 40 | 0.193 | – | – | 0.0056 | 5 | 42 | 6 | – |

The next lines start with results.

| IC50 (Gamma-secretase) [µM] | IC50 [1] [µM] | Stability (Liver microsomes [2]) [%] | Stability (Liver microsomes [3]) [%] | IC50 [4] [µM] | remaining at 0.5 h, 1 µM [5] [%] | remaining at 0.5 h, 2 µM [6] [%] | ED50 [7] [µM] | SMILES | Activity (Mus musculus) [%] |
| --- | --- | --- | --- | --- | --- | --- | --- | --- | --- |
| 0.025 | 0.001 | 85 | 85 | – | – | – | – | O=S(=O)(c1ccc(C(F)(F)F)nc1)N1C(C2CC2)c2cn[nH]c2C(F)(F)C12CC2 (stereo in doubt; 17b) [4'-CYCLOPROPYL-7',7'-DIFLUORO-5'-(6-(TRIFLUOROMETHYL)PYRIDIN-3-YLSULFONYL)-1',4',5',7'-TETRAHYDRO SPIRO[CYCLOPROPANE-1,6'-PYRAZOLO[4,3-C]PYRIDINE] (ENANTIOMERIC MIX)] | – |
| 1.64 | 0.107 | 12 | – | 0.0048 | – | – | – | CC(C)(C)C1C(=O)c2[nH]ncc2C(C2CC2)N1S(=O)(=O)c1ccc(C(F)(F)F)nc1 (stereo in doubt; 3u) [6-TERT-BUTYL-4-CYCLOPROPYL-5-(6-(TRIFLUOROMETHYL)PYRIDIN-3-YLSULFONYL)-5,6-DIHYDRO-1H-PYRAZOLO[4,3-C]PYRIDIN-7(4H)-ONE (STRUCTURAL MIX)] | – |
| > 40 | 8.28 | 80 | – | 0.897 | – | – | – | O=C1c2[nH]ncc2C(C2CC2)N(S(=O)(=O)c2ccc(C(F)(F)F)cn2)C12CC2 (stereo in doubt; 16h) [4'-CYCLOPROPYL-5'-(5-(TRIFLUORO METHYL)PYRIDIN-2-YL SULFONYL)-4',5'-DIHYDROSPIRO[CYCLOPROPANE-1,6'-PYRAZOLO[4,3-C]PYRIDIN]-7'(1'H)-ONE (ENANTIOMERIC MIX)] | – |
| > 40 | 0.089 | – | – | 0.0068 | 63 | 77 | 5.11 | CC1C(=O)c2[nH]ncc2C(C)N1S(=O)(=O)c1ccc(C(F)(F)F)cc1 (stereo not given) | – |
| > 40 | 0.091 | – | – | 0.0037 | 12 | 71 | 4 | CC(C)[C@@H]1c2cn[nH]c2C(=O)CN1S(=O)(=O)c1ccc(Cl)cc1 | – |
| 0.25 | 0.015 | – | 94 | 0.0014 | – | – | – | O=C1c2[nH]ncc2C(C2CC2)N(S(=O)(=O)c2ccc(C(F)(F)F)nc2)C12CC2 (stereo in doubt; 16f) [4'-CYCLO PROPYL-5'-(6-(TRIFLUORO METHYL)PYRIDIN-3-YL SULFONYL)-4',5'-DIHYDROSPIRO[CYCLOPROPANE-1,6'-PYRAZOLO[4,3-C]PYRIDIN]-7'(1'H)-ONE (ENANTIOMERIC MIX)] | 27 |
| 0.138 | 0.023 | – | – | 0.0006 | 80 | 75 | 0.002 | O=S(=O)(c1ccc(C(F)(F)F)nc1)N1[C@@H](C2CC2)c2cn[nH]c2C(F)(F)[C@H]1C1CC1 (stereo in doubt) | 20 |
| > 40 | 0.021 | – | – | 0.0006 | 72 | 59 | > 10 | C[C@H]1C(=O)c2[nH]ncc2[C@@H](C2CC2)N1S(=O)(=O)c1ccc(C(F)(F)F)nc1 (relative stereo) | – |
